Test system: A549 (human lung cancer cell) xenograft
Experiment: Tumor regression effect in tumor-bearing mice by iTAP treatment (A549 cell line xenograft mouse)
Format: in vivo, BALB/c Slc-nu/nu mice
Conditions: Laserphyrin 5 mg/kg with 664 nm laser light 30 J/cm^2, IT-Cetuximab 3 mg/kg, alone or combined
Procedure: Separately cultured A549 cells were adjusted to 1×10^7 cells/100 μL, and the cells were subcutaneously administered (SC) to the right thigh of 7-week-old male BALB/c Slc-nu/nu mice, and xenograft mice (tumor-bearing mice) were produced. Tumor size was calculated using the following formula.
Tumor volume (mm^3)=major axis (mm)×minor axis (mm)×minor axis (mm)×0.5
When the tumor size of the mice reached an average size of approximately 150 mm^3, the mice were randomly divided into the following groups (n=3). • Condition (1) Control group: No administration • Condition (2) Laserphyrin (5 mg/kg) administration and 664 nm laser light (30 J/cm^2) • irradiation group • Condition (3) IT-Cetuximab (3 mg/kg) administration group • Condition (4) Laserphyrin (5 mg/kg), IT-Cetuximab (3 mg/kg) administration and 664 nm laser light (30 J/cm^2) irradiation group
IT-Cetuximab was administered intraperitoneally to mice, and 2 days later, Laserphyrin was administered through the tail vein. Furthermore, 2 hours after the administration of Laserphyrin, the tumor site was locally irradiated with a 664 nm laser light.
Tumor size was measured every 3 to 5 days after administration.

C=Cc1c(C)c2cc3nc(c(CC(=O)N[C@@H](CC(=O)O)C(=O)O)c4[nH]c(cc5nc(cc1[nH]2)C(C)=C5CC)c(C)c4C(=O)O)[C@@H](CCC(=O)O)[C@@H]3C [Laserphyrin, Talaporfin Sodium] was tested, and the “macroscopic observation of the tumor” value was “tumor growth was confirmed macroscopically”.
